Test results: US8808715B1, “Methods and compositions for modulating keratinocyte function” (Georgia Regents Research Institute, Inc, priority 2004, dated 2014)

Assays:
Format in all cases: cell-based, mouse
[1] = system: primary epidermal keratinocytes; assay: Radiolabeled phosphatidylglycerol formation in intact keratinocytes
Description: Primary epidermal keratinocytes were prepared from 1-3-day old neonatal ICR mice after trypsin flotation of the skin and mechanical separation of the epidermis from the dermis. The epidermal cells were released by scraping, collected by centrifugation and plated in 6-well dishes in a medium consisting of MEM containing 25 μM calcium, 2% dialyzed fetal bovine serum, 2 mM glutamine, 5 ng/mL EGF, ITS (6.25 μg/mL insulin+6.25 μg/mL transferrin+6.25 ng/mL selenious acid+5.35 μg/mL linoleic acid+1.25% bovine serum albumin), 100 U/mL penicillin, 100 μg/mL streptomycin and 0.25 μg/mL fungizone. After an overnight incubation, the cells were refed with serum-free keratinocyte medium (SFKM), in which 2% dialyzed fetal bovine serum was replaced with 90 μg/mL bovine pituitary extract. Cells were refed with fresh medium every 1-3 days.
For the PLD assay cultured primary keratinocytes were labeled for 20-24 hours with 2.5 μCi/ml [^3H] oleic acid. The cells were then exposed to vehicle or 100 nM PMA in the presence of 0.5% ethanol for 30 minutes. To measure the formation of radiolabeled phosphatidylglycerol, cells were treated for 24 hours with SFKM containing vehicle, 250 nM 1,25-dihydroxyvitamin D3 or 125 μM calcium and then labeled for an additional 30 minutes with 1-2.5 μCi/mL [^3H] or 0.4-0.5 μCi/mL [^14C]glycerol. For experiments investigating the extracellular calcium dependence of PG formation, cells were incubated for 24 hours in SFKM containing various calcium concentrations prior to the addition of 5 μCi/mL [^3H]glycerol for 30 minutes. In some cases, cells were stimulated with 25 μM calcium (control)—or 125 μM calcium-containing SFKM for 24 hours prior to the addition of [^14C]glycerol in the presence and absence of 1% ethanol. To measure phosphatidylglycerol formation in response to PMA, unlabeled cells were stimulated with 100 nM PMA in the presence of radiolabeled glycerol, as above. Reactions were terminated and the radiolabeled phosphatidylalcohol extracted, separated by thin-layer chromatography and quantified as described by Bollag (1998), referenced above.

keratinocytes = assay: Release of radiolabel from [14C]glycerol-labeled lipids by bacterial PLD (headgroup position); conditions: 125 μM calcium pretreatment 24 hours, means±SEM
Description: Keratinocytes pretreated for 24 hours with control (25 μM calcium) or 125 μM calcium-containing medium were exposed to 0.4-0.5 μCi/mL [^14C]glycerol for an additional 30 minutes. Lipids were extracted into chloroform/methanol as described above. Dried lipid extracts were then solubilized in phospho lipase buffer (100 mM Tris, pH 7.4, 6 mM MgCl2+0.1% Triton-X100) by extensive vortexing and a short incubation at 37° C. and approximately half of each extract was transferred into a clean tube. Distilled water (untreated) or 1 IU/mL (final concentration) of Streptomyces chromofuscus PLD (Sigma, St. Louis, Mo.) diluted in distilled water (PLD-treated) was then added to each of the lipid extract samples, which were incubated at 37° C. for 60 minutes. Released headgroups were then separated from phospholipids by extraction into the aqueous layer, essentially according to the method of Folch. […] A portion of the upper aqueous layer was then collected and quantified by liquid scintillation spectrometry. PLD-released radioactivity in the aqueous phase was calculated as the amount released in the PLD-treated sample minus the amount detected in the corresponding untreated sample. […] This lipid extract was then separated by thin-layer chromatography and PG and phosphatidic acid in the samples quantified as above.

keratin 5 promoter = assay: Co-transfection analysis, keratin 5 promoter-luciferase reporter; conditions: 1 mM calcium, 24 hours
Description: FIGS. 15A-B illustrate that glycerol, but not xylitol or sorbitol, inhibits DNA synthesis and enhances the inhibitory effect of an elevated extracellular Ca^2+ concentration. (A) Near-confluent keratinocytes were incubated for 24 hours with 0.02 or 0.1% glycerol and DNA synthesis measured as the incorporation of [^3H] thymidine incorporation into DNA. (B) Near-confluent keratinocytes were incubated for 24 hours with the indicated concentrations of glycerol (G, squares) or equivalent concentrations of xylitol (X, circles) in SFKM containing 25 μM (control; open symbols) or 125 μM Ca^2+ (Ca^2+; closed symbols). (C) Near-confluent keratinocytes were incubated for 24 hours with the indicated concentrations of glycerol (G) or equivalent concentrations of sorbitol (S, triangles) in SFKM containing 25 μM (control; open symbols) or 125 μM Ca^2+ (Ca^2+; closed symbols) for 24 hours. [^3H]Thymidine incorporation into DNA was then determined. Values represent the means±SEM of 4 to 5 separate experiments performed in duplicate; *p<0.05, **p<0.01 versus the control value, †p<0.05 versus the value in the presence of Ca^2+ alone. […] After 24 hours cells were refed with medium containing no addition (control) or 0.2% glycerol for an additional 24 hours. Luciferase activity was then measured using a Dual Luciferase kit as directed by the manufacturer. […] The blots were quantified using the Kodak molecular imaging software. […]
The keratin 5 and keratin 10 promoter-luciferase constructs were provided by of Dr. Bogi Andersen (University of California, Irvine, Calif.); the involucrin promoter-luciferase construct was provided by Dr. Daniel Bikle (University of California, San Francisco, Calif.). […] Luciferase activity was then measured using the Dual Luciferase Reporter Assay kit (Promega, Madison, Wis.) as directed by the manufacturer.

[Ca+2] [calcium]
radiolabeled PG formation relative to control cells ([1]; 24 hours pretreatment (250 nM 1,25-dihydroxyvitamin D3 or 125 μM calcium), then [3H]glycerol 30 minutes): induced an increase in the subsequent production of PG | calcium concentration giving maximal stimulation of radiolabeled PG formation ([1]; range 25 μM (control) to 1 mM, 24 hours, biphasic dose dependence): 125 µM | radiolabel released into aqueous fraction by bacterial PLD from lipid extracts (keratinocytes; p<0.001): 4.2±0.4 fold over the control level | radioactivity released by bacterial PLD from isolated PG (keratinocytes; p<0.01): 3.3±0.5 fold over the control level | inhibition of keratin 5 promoter activity (keratin 5 promoter): 64%
